Measured values published in ChEMBL document CHEMBL3994587, “An insight on synthetic and medicinal aspects of pyrazolo[1,5-a]pyrimidine scaffold” (Eur J Med Chem, 2017).
In brackets after ≈: the same amount, converted by molar mass.

Tests used:
[1] = system: Staphylococcus aureus; test: Antibacterial activity against Staphylococcus aureus measured after 18 hrs by agar dilution method; type: functional
[2] = system: Bacillus subtilis; test: Antibacterial activity against Bacillus subtilis measured after 18 hrs by agar dilution method; type: functional
[3] = system: Escherichia coli; test: Antibacterial activity against Escherichia coli measured after 18 hrs by agar dilution method; type: functional
[4] = system: Pseudomonas aeruginosa; test: Antibacterial activity against Pseudomonas aeruginosa measured after 18 hrs by agar dilution method; type: functional
[5] = system: Candida albicans; test: Antifungal activity against Candida albicans measured after 18 hrs by agar dilution method; type: functional
[6] = system: Trichophyton mentagrophytes; test: Anti-fungal activity against Trichophyton mentagrophytes measured after 48 hrs by broth dilution method; type: functional; settings: for MIC: Trichophyton mentagrophytes, 48 h
[7] = system: Staphylococcus aureus; test: Antibacterial activity against Staphylococcus aureus RCMB 000108 assessed as zone of inhibition at 30 ug/ml; type: functional; settings: read-out: IZ
[8] = system: Bacillus subtilis; test: Antibacterial activity against Bacillus subtilis RCMB 000109 assessed as zone of inhibition at 30 ug/ml; type: functional; settings: read-out: IZ
[9] = system: Escherichia coli; test: Antibacterial activity against Escherichia coli RCMB 000106 assessed as zone of inhibition at 30 ug/ml; type: functional; settings: read-out: IZ
[10] = system: Aspergillus fumigatus; test: Antifungal activity against Aspergillus fumigatus RCMB 002006 assessed as zone of inhibition at 30 ug/ml; type: functional; settings: read-out: IZ
[11] = system: Geotrichum candidum; test: Antifungal activity against Geotrichum candidum 052008 assessed as zone of inhibition at 30 ug/ml; type: functional; settings: read-out: IZ
[12] = system: Syncephalastrum racemosum; test: Antifungal activity against Syncephalastrum racemosum 005004 assessed as zone of inhibition at 30 ug/ml; type: functional; settings: read-out: IZ
[13] = system: Pseudomonas aeruginosa; test: Antibacterial activity against Pseudomonas aeruginosa RCMB 000103 assessed as zone of inhibition at 30 ug/ml; type: functional; settings: read-out: IZ
[14] = system: Candida albicans; test: Antifungal activity against Candida albicans RCMB 0005003 assessed as zone of inhibition at 30 ug/ml; type: functional; settings: read-out: IZ
[15] = system: Staphylococcus aureus; test: Antibacterial activity against Staphylococcus aureus NCTC 7447 assessed as zone of inhibition at 1 mg/ml measured after 24 hrs by agar diffusion method; type: functional; settings: NCTC 7447, 24 h, read-out: IZ
[16] = system: Bacillus subtilis; test: Antibacterial activity against Bacillus subtilis NCTC 10400 assessed as zone of inhibition at 1 mg/ml measured after 24 hrs by agar diffusion method; type: functional; settings: NCTC 10400, 24 h, read-out: IZ
[17] = system: Sarcina; test: Antibacterial activity against Sarcina sp. NCTC 1117 assessed as zone of inhibition at 1 mg/ml measured after 24 hrs by agar diffusion method; type: functional; settings: NCTC 1117, 24 h, read-out: IZ
[18] = system: Escherichia coli; test: Antibacterial activity against Escherichia coli NCTC 10416 assessed as zone of inhibition at 1 mg/ml measured after 24 hrs by agar diffusion method; type: functional; settings: NCTC 10416, 24 h, read-out: IZ
[19] = system: Serratia marcescens; test: Antibacterial activity against Serratia marcescens IMRU 70 assessed as zone of inhibition at 1 mg/ml measured after 24 hrs by agar diffusion method; type: functional; settings: IMRU 70, 24 h, read-out: IZ
[20] = system: Tritrichomonas foetus; test: Anti-parasitic activity against Tritrichomonas foetus measured after 48 hrs by microscopic analysis; type: functional; settings: for MIC: Tritrichomonas foetus, 48 h
[21] = system: Salmonella typhi; test: Antibacterial activity against Salmonella typhi MTCC 98 assessed as zone of inhibition at 25 to 150 ug/ml measured after 24 hrs by agar well diffusion method; type: functional, Salmonella enterica subsp. enterica serovar Typhi
[22] = system: Escherichia coli; test: Antibacterial activity against Escherichia coli MTCC 443 assessed as zone of inhibition at 25 to 150 ug/ml measured after 24 hrs by agar well diffusion method; type: functional
[23] = system: Bacillus subtilis; test: Antibacterial activity against Bacillus subtilis MTCC 441 assessed as zone of inhibition at 25 to 150 ug/ml measured after 24 hrs by agar well diffusion method; type: functional
[24] = system: Aspergillus niger; test: Antifungal activity against Aspergillus niger assessed as zone of inhibition at 25 to 150 ug/ml measured after 24 to 48 hrs by agar well diffusion method; type: functional
[25] = system: Aspergillus flavus; test: Antifungal activity against Aspergillus flavus MTCC 3008 assessed as zone of inhibition at 25 to 150 ug/ml measured after 24 to 48 hrs by agar well diffusion method; type: functional
[26] = system: Candida albicans; test: Antifungal activity against Candida albicans MTCC 227 assessed as zone of inhibition at 25 to 150 ug/ml measured after 24 to 48 hrs by agar well diffusion method; type: functional
[27] = system: Penicillium chrysogenum; test: Antifungal activity against Penicillium chrysogenum MTCC 160 assessed as zone of inhibition at 25 to 150 ug/ml measured after 24 to 48 hrs by agar well diffusion method; type: functional
[28] = target: T1, Translocator protein (Rattus norvegicus, UniProt P16257); test: Displacement of [3H]PK11195 from PBZR in rat kidney mitochondrial membranes measured after 90 mins by liquid scintillation counting; type: cell membranes
[29] = target: T1, Translocator protein; test: Displacement of [3H]Ro5-4864 from PBZR in rat kidney mitochondrial membranes measured after 90 mins by liquid scintillation counting; type: cell membranes
[30] = system: Staphylococcus aureus; test: Antibacterial activity against Staphylococcus aureus MTCC 96 assessed as zone of inhibition at 25 to 150 ug/ml measured after 24 hrs by agar well diffusion method; type: functional

T1 sequence (P16257 whole entry, looked up): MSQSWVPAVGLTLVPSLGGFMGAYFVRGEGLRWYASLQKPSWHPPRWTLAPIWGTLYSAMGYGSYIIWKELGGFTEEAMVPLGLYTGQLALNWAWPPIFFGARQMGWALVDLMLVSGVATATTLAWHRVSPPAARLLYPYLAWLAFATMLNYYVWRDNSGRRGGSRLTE

Compound: Cc1nc(-c2ccccc2)sc1-c1ccn2nc(-c3ccccc3)cc2n1
- MIC [1]: ≥ 800 µg/mL
- MIC [2]: ≥ 800 µg/mL
- MIC [3]: ≥ 800 µg/mL
- MIC [4]: ≥ 800 µg/mL
- MIC [5]: ≥ 800 µg/mL

Compound: CCCCCCCC/C=C\CCCCCCCCNc1cc(C)nc2c(Br)cnn12
- MLC [6]: 20 µM (≈ 9.55 µg/mL)
- MIC [6]: 10 µM (≈ 4.78 µg/mL)

Compound: O=C(O)c1cn(C2CC2)c2cc(N3CCNCC3)c(F)cc2c1=O [CIPROFLOXACIN]
- MIC [1]: ≤ 25 µg/mL
- MIC [2]: ≤ 25 µg/mL
- MIC [3]: ≤ 25 µg/mL
- MIC [4]: 400 µg/mL (≈ 1210 µM)
- MIC [5]: ≥ 800 µg/mL

Compound: Nc1nn2c(-c3ccco3)cc(-c3ccco3)nc2c1/N=N/c1ccccc1
- zone of inhibition at 30 µg/mL [7]: 16.7 mm
- zone of inhibition at 30 µg/mL [8]: 15.7 mm
- zone of inhibition at 30 µg/mL [9]: 15.2 mm
- zone of inhibition at 30 µg/mL [10]: 14.2 mm
- zone of inhibition at 30 µg/mL [11]: 15.3 mm
- zone of inhibition at 30 µg/mL [12]: 10.2 mm

Compound: Cc1ccc(/N=N/c2c(N)nn3c(-c4ccco4)cc(-c4ccco4)nc23)cc1
- zone of inhibition at 30 µg/mL [7]: 22.2 mm
- zone of inhibition at 30 µg/mL [8]: 23.3 mm
- zone of inhibition at 30 µg/mL [13]: 18.5 mm
- zone of inhibition at 30 µg/mL [9]: 21.9 mm
- zone of inhibition at 30 µg/mL [10]: 21.8 mm
- zone of inhibition at 30 µg/mL [11]: 19.5 mm
- zone of inhibition at 30 µg/mL [12]: 14.8 mm
- zone of inhibition at 30 µg/mL [14]: 18.1 mm

Compound: Nc1nn2c(-c3cccs3)cc(-c3cccs3)nc2c1/N=N/c1ccccc1
- zone of inhibition at 30 µg/mL [7]: 15.3 mm
- zone of inhibition at 30 µg/mL [8]: 17.9 mm
- zone of inhibition at 30 µg/mL [13]: 9.3 mm
- zone of inhibition at 30 µg/mL [9]: 14.9 mm
- zone of inhibition at 30 µg/mL [10]: 15.2 mm
- zone of inhibition at 30 µg/mL [11]: 11.3 mm
- zone of inhibition at 30 µg/mL [12]: 8.2 mm
- zone of inhibition at 30 µg/mL [14]: 10 mm

Compound: COc1ccccc1NS(=O)(=O)c1ccc(/N=N/c2c(=O)[nH]n3c(-c4ncccn4)c(C#N)c(N)nc23)cc1
- zone of inhibition at 1000 µg/mL [15]: 15 to 18 mm
- zone of inhibition at 1000 µg/mL [16]: 15 to 18 mm
- zone of inhibition at 1000 µg/mL [17]: 12 to 14 mm
- zone of inhibition at 1000 µg/mL [18]: 12 to 14 mm
- zone of inhibition at 1000 µg/mL [19]: 12 to 14 mm

Compound: CCOC(=O)c1cn(CC)c2c([N+](=O)[O-])cnn2c1=O
- MLC [20]: 3.2 µg/mL (≈ 11.4 µM)
- MIC [20]: 1 µg/mL (≈ 3.57 µM)

Compound: CCCCCCCCNc1cc(C)nc2ccnn12
- MLC [6]: 160 µM (≈ 41.7 µg/mL)
- MIC [6]: 20 µM (≈ 5.21 µg/mL)

Compound: Cc1ncc([N+](=O)[O-])n1CCO [METRONIDAZOLE]
- MLC [20]: 10 µg/mL (≈ 58.4 µM)
- MIC [20]: 3.2 µg/mL (≈ 18.7 µM)

Compound: Cc1nn(-c2ccccc2)c(Cl)c1-c1cc(-c2cc(Cl)cc(Cl)c2O)nc2c(/N=N/c3ccc(Cl)cc3)c(N)nn12
- inhibition zone (IZ) [21]: 24 mm
- inhibition zone (IZ) [22]: 26 mm
- inhibition zone (IZ) [23]: 16 mm
- inhibition zone (IZ) [24]: 18 mm
- inhibition zone (IZ) [25]: 21 mm
- inhibition zone (IZ) [26]: 17 mm
- inhibition zone (IZ) [27]: 24 mm

Compound: CCC(CC)C(=O)Cc1c(-c2ccc(C)cc2)nn2c(C)cc(C)nc12
- Ki [28]: 0.8 nM
- Ki [29]: 1.7 nM

Compound: CCC(CC)C(=O)Cc1c(-c2ccc(OC)cc2)nn2c(C)cc(C)nc12
- Ki [28]: 4.7 nM
- Ki [29]: 3.1 nM

Compound: Cc1nn(-c2ccccc2)c(Cl)c1-c1cc(-c2cc(Cl)cc(I)c2O)nc2c(/N=N/c3ccc(Cl)cc3)c(N)nn12
- inhibition zone (IZ) [21]: 16 mm
- inhibition zone (IZ) [22]: 17 mm
- inhibition zone (IZ) [23]: 15 mm
- inhibition zone (IZ) [30]: 18 mm
- inhibition zone (IZ) [24]: 26 mm
- inhibition zone (IZ) [25]: 21 mm
- inhibition zone (IZ) [26]: 19 mm
- inhibition zone (IZ) [27]: 17 mm

Compound: Cc1nc(-c2ccccc2)sc1-c1ccn2nc(C#N)cc2n1
- MIC [1]: ≥ 800 µg/mL
- MIC [2]: ≥ 800 µg/mL
- MIC [3]: ≥ 800 µg/mL
- MIC [4]: ≥ 800 µg/mL
- MIC [5]: ≥ 400 µg/mL

Compound: Cc1cc(O)c(-c2cc(-c3c(C)nn(-c4ccccc4)c3Cl)n3nc(N)c(/N=N/c4ccc(Cl)cc4)c3n2)cc1Cl
- inhibition zone (IZ) [22]: 16 mm
- inhibition zone (IZ) [23]: 18 mm
- inhibition zone (IZ) [30]: 14 mm
- inhibition zone (IZ) [24]: 16 mm
- inhibition zone (IZ) [25]: 10 mm
- inhibition zone (IZ) [26]: 20 mm
- inhibition zone (IZ) [27]: 19 mm
